Results from the supplement of paper PMC11451515.

Tested on: NOMO1
Test: cell viability relative to DMSO control; higher = less cytotoxic
Conditions: 48 h
Summary of the method: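 Leukemia cells (NOMO1 or SEM, 500 cells/well; P12-Ichikawa, 1000 cells/well) were seeded in 5 μl in 1536-well plates after at least four passages of adaptation to each medium. They received library compounds in DMSO by pin dosing, 11 threefold points from 47 μM to 0.79 nM. Luminescence with CellTiter-Glo One was read after 48 h at 37°C. Viability is stated per plate relative to DMSO wells, with cell-free wells as background.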

[1] = HPLM + 10% dialyzed FBS, 0.000781 µM
[2] = HPLM + 10% dialyzed FBS, 0.00234 µM
[3] = HPLM + 10% dialyzed FBS, 0.00702 µM
[4] = HPLM + 10% dialyzed FBS, 0.0211 µM
[5] = HPLM + 10% dialyzed FBS, 0.0632 µM
[6] = HPLM + 10% dialyzed FBS, 0.19 µM
[7] = HPLM + 10% dialyzed FBS, 0.569 µM
[8] = HPLM + 10% dialyzed FBS, 1.71 µM
[9] = HPLM + 10% dialyzed FBS, 5.12 µM
[10] = HPLM + 10% dialyzed FBS, 15.4 µM
[11] = HPLM + 10% dialyzed FBS, 46.1 µM
[12] = RPMI 5 mM glucose + 10% FBS, 0.000781 µM
[13] = RPMI 5 mM glucose + 10% FBS, 0.00234 µM
[14] = RPMI 5 mM glucose + 10% FBS, 0.00702 µM
[15] = RPMI 5 mM glucose + 10% FBS, 0.0211 µM
[16] = RPMI 5 mM glucose + 10% FBS, 0.0632 µM
[17] = RPMI 5 mM glucose + 10% FBS, 0.19 µM
[18] = RPMI 5 mM glucose + 10% FBS, 0.569 µM
[19] = RPMI 5 mM glucose + 10% FBS, 1.71 µM
[20] = RPMI 5 mM glucose + 10% FBS, 5.12 µM
[21] = RPMI 5 mM glucose + 10% FBS, 15.4 µM
[22] = RPMI 5 mM glucose + 10% FBS, 46.1 µM
[23] = RPMI 5 mM glucose + 10% dialyzed FBS, 0.000781 µM
[24] = RPMI 5 mM glucose + 10% dialyzed FBS, 0.00234 µM
[25] = RPMI 5 mM glucose + 10% dialyzed FBS, 0.00702 µM
[26] = RPMI 5 mM glucose + 10% dialyzed FBS, 0.0211 µM
[27] = RPMI 5 mM glucose + 10% dialyzed FBS, 0.0632 µM
[28] = RPMI 5 mM glucose + 10% dialyzed FBS, 0.19 µM
[29] = RPMI 5 mM glucose + 10% dialyzed FBS, 0.569 µM
[30] = RPMI 5 mM glucose + 10% dialyzed FBS, 1.71 µM
[31] = RPMI 5 mM glucose + 10% dialyzed FBS, 5.12 µM
[32] = RPMI 5 mM glucose + 10% dialyzed FBS, 15.4 µM
[33] = RPMI 5 mM glucose + 10% dialyzed FBS, 46.1 µM

SMILES | cell viability [1] [%] | cell viability [2] [%] | cell viability [3] [%] | cell viability [4] [%] | cell viability [5] [%] | cell viability [6] [%] | cell viability [7] [%] | cell viability [8] [%] | cell viability [9] [%] | cell viability [10] [%] | cell viability [11] [%] | cell viability [12] [%] | cell viability [13] [%] | cell viability [14] [%] | cell viability [15] [%] | cell viability [16] [%] | cell viability [17] [%] | cell viability [18] [%] | cell viability [19] [%] | cell viability [20] [%] | cell viability [21] [%] | cell viability [22] [%] | cell viability [23] [%] | cell viability [24] [%] | cell viability [25] [%] | cell viability [26] [%] | cell viability [27] [%] | cell viability [28] [%] | cell viability [29] [%] | cell viability [30] [%] | cell viability [31] [%] | cell viability [32] [%] | cell viability [33] [%]
Nc1ncnc2c1c(-c1cccc(OCc3ccccc3)c1)cn2C1CC(CN2CCCC2)C1 (configuration not stated) | 113 | 133 | 124 | 124 | 141 | 134 | 119 | 90.4 | 94.2 | 78.1 | 36.2 |  |  |  |  |  |  |  |  |  |  |  |  |  |  |  |  |  |  |  |  |  | 
CN(C)CCN1C(=O)c2cccc3cc(N)cc(c23)C1=O | 116 | 122 | 118 | 125 | 118 | 147 | 118 | 123 | 93.7 | 72.3 | 26.7 | 93.3 | 108 | 135 | 108 | 121 | 121 | 132 | 102 | 105 | 59.3 | 13.1 | 99.2 | 110 | 108 | 111 | 118 | 118 | 111 | 108 | 97.3 | 73.6 | 23.9
COC(=O)\C1=C\CCN(C)C1 | 125 | 115 | 111 | 102 | 101 | 124 | 135 | 115 | 113 | 112 | 109 | 84.7 | 94.8 | 96.5 | 91.3 | 85.3 | 94 | 110 | 97.4 | 93.6 | 87 | 99 | 95.7 | 96.3 | 98.9 | 95.7 | 107 | 97.4 | 92.5 | 97.6 | 88.9 | 102 | 103
CC(C)Cc1ccc(C(C)C(=O)O)cc1 (configuration not stated) | 84.6 | 106 | 96.7 | 115 | 95.6 | 102 | 90.6 | 102 | 82 | 91.4 | 89.7 | 79.4 | 93.9 | 94.3 | 87.3 | 97.2 | 83.9 | 97.9 | 86.7 | 83.9 | 86.1 | 89.6 | 85.6 | 83 | 77.8 | 85.4 | 72.7 | 82.2 | 76.5 | 91.6 | 81.9 | 80.5 | 82.1
C[C@H]1COC/2=C1/C(=O)C(=O)C3=C4CCCC(C)(C)C4=CC=C23 | 114 | 131 | 121 | 116 | 154 | 146 | 137 | 163 | 158 | 132 | 134 |  |  |  |  |  |  |  |  |  |  |  | 123 | 129 | 120 | 136 | 135 | 129 | 148 | 156 | 141 | 134 | 151
C#CCN[C@@H]1CCc2ccccc21.CS(=O)(=O)O | 107 | 93.4 | 108 | 109 | 91.7 | 90.3 | 96 | 82.6 | 93.9 | 71.3 | 43.2 | 89.6 | 97 | 92.7 | 87.9 | 94 | 88.1 | 91.1 | 84.2 | 84.2 | 96.5 | 67.2 | 86.1 | 99.9 | 105 | 99.8 | 106 | 101 | 93.7 | 107 | 85.1 | 90.6 | 81.8
NC(=O)NO | 88.2 | 102 | 110 | 110 | 116 | 100 | 88.9 | 84.9 | 16.6 | 3.7 | 2.4 | 83.9 | 90.8 | 85.6 | 88.7 | 86.1 | 90.2 | 90.8 | 94.6 | 37.3 | 10.4 | 1.27 | 81.9 | 90.4 | 92.6 | 95.3 | 98 | 87.2 | 91.1 | 96 | 33 | 10 | 1.29
CCN1CCCC1CNC(=O)c1cc([S+](N)(=O)[O-])ccc1OC (configuration not stated) | 104 | 117 | 127 | 127 | 142 | 128 | 111 | 117 | 140 | 121 | 78 | 120 | 113 | 102 | 103 | 123 | 106 | 118 | 120 | 119 | 117 | 105 | 111 | 126 | 106 | 125 | 115 | 139 | 131 | 134 | 122 | 126 | 129
CCOC(=O)/C=C/[C@H](C[C@@H]1CCNC1=O)NC(=O)[C@@H](CC(=O)[C@@H](NC(=O)c1cc(C)on1)C(C)C)Cc1ccc(F)cc1 |  |  |  |  |  |  |  |  |  |  |  |  |  |  |  |  |  |  |  |  |  |  | 119 | 124 | 143 | 118 | 132 | 118 | 130 | 131 | 144 | 155 | 125
